Results on two compounds are retold here after article PMC4076210, “Discovery of Novel AKT Inhibitors with Enhanced Anti-Tumor Effects in Combination with the MEK Inhibitor” (PLoS ONE, 2014).

“And” between values parts separate entries of the source, which are not always exact repeats. Identical values can stand only once.

The target of data set [1] is PKCβ2 (Homo sapiens, UniProt P05771). Put plainly: Kinase IC50 assay. It counts as biochemical.
In data set [2] the target is PKCβ1 (Homo sapiens, UniProt P05771). Put plainly: Kinase IC50 assay. It counts as biochemical.
PKCβ1, sequence (P05771 whole entry, the tested form may be a part): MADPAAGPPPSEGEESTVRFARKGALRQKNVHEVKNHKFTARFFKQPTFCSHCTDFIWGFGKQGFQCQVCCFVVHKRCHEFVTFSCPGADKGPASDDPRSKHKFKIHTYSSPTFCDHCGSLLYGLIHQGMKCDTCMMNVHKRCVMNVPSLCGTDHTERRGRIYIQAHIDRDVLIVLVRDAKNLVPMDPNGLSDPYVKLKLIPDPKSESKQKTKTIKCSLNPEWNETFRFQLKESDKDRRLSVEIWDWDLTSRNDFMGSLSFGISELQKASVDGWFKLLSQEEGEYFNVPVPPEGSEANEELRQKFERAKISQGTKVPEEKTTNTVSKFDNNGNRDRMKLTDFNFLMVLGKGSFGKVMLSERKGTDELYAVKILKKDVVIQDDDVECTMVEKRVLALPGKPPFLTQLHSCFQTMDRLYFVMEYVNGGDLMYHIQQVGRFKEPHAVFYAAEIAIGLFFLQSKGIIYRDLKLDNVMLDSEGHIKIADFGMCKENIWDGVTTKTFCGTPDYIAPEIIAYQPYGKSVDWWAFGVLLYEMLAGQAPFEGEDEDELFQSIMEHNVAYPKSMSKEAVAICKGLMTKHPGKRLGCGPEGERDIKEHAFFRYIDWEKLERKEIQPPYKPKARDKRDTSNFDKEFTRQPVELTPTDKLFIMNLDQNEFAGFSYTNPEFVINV
Data set [3] relates to HPAC tumor xenografts. The data set is described as follows: Xenograft tumor growth inhibition, combination with MEK inhibitor. It counts as in vivo, mouse. The following applies: 30 mg/kg daily, day 42. As for the experimental part: (§1) Tumors were initiated by injecting either cells (SKOV3, CAPAN-2 and HPAC) or a tumor fragments (BT474) subcutaneously into 6–8 week female athymic nude (SKOV3) and SCID (all others) mice. Once tumors reached between 120 and 300 mm^3, mice were randomized according to tumor volume into groups of n = 7–10 mice per treatment. GSK2110183 and GSK2141795 were administered daily at various doses by oral gavage. In combination experiments, GSK1120212 was also administered daily by oral gavage. Tumor volumes and body weight were measured twice weekly, tumor volume was measured with calipers and calculated using equation: […]. Results are represented as percent inhibition on completion of dosing = 100 x [1- average growth of drug-treated population/average growth of vehicle-treated control population].

The test system of data set [4] is CAPAN-2 tumor xenografts. Described as above. It counts as in vivo, mouse. The settings on record: 30 mg/kg, day 69. As for the experimental part:
as §1

Data set [5] addresses T1, PKBα(h) (Homo sapiens, UniProt P31749).
T1 construct: purchased Millipore KinaseProfiler
The data set is described as follows: Kinase panel. It counts as biochemical.

Data set [6] can be described thus: Compound concentration in blood and tumor (HPLC/MS/MS). It counts as in vivo, mouse.
Method: Concentration of the test compounds in the tissue and blood was analyzed using protein precipitation with acetonitrile, followed by HPLC/MS/MS analysis using positive ion atmospheric pressure chemical ionization or Turbo ionspray ionization (API 4000 or API 5000, Applied Biosystems).
The pharmacodynamic studies were carried out in SCID mice bearing BT474 tumor xenografts. […] Concentration of the test compounds was analysed by HPLC/MS/MS analysis.
In data set [7] the target is T2, PKBβ(h) (Homo sapiens, UniProt P31751).
T2 construct: purchased Millipore KinaseProfiler
T2 sequence (P31751 whole entry): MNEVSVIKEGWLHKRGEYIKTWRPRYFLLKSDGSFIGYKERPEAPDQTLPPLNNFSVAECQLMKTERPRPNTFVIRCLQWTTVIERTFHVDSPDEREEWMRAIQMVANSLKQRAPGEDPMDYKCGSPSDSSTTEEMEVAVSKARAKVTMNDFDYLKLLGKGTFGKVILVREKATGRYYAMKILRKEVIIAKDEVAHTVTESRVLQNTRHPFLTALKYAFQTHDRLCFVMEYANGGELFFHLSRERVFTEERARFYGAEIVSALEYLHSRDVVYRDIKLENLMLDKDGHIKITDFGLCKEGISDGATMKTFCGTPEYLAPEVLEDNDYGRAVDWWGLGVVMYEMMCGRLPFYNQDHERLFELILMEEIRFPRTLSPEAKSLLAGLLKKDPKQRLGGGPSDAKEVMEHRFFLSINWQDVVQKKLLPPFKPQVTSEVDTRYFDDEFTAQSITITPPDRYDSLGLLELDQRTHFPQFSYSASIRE
Put plainly: Kinase panel. It counts as biochemical.

Data set [8] has as its system FOXO_GFP translocation in MDA-MB-468. Put plainly: FOXO3A-GFP translocation assay. It counts as cell-based, human. The following applies: MDA-MB-468, 1 h, mean ± std dev.
Method: MDA-MB-468 cells stably transfected with FOXO3A-GFP were plated at 1000 cells/96 well and allowed to adhere overnight. Cells were treated with DMSO or AKT inhibitor (0-10 µM) for 1 h. Plates were centrifuged at 1200 rpm for 10 min, and the medium aspirated. Cells were fixed with 200 μL of 4% paraformaldehyde (Alfa Aesar, Wood Hill, MA), and DAPI (80 ng/mL, Roche, Branchburg, NJ) was added to each well and incubated for 20 min at room temperature. […] Five fields per well were imaged to achieve ≥250 nuclei count per well. A ratio of nuclear to cytoplasmic intensity was calculated by the software. The formula used to calculate percentage nuclear translocation = (Fluorescence sample- Fluorescence DMSO)/ (Fluorescence 10 µM treatment sample- Fluorescence DMSO)*100. The calculation produces a scale of 0-100% with 100% being 10 µM of compound treatment and 0 being DMSO treatment. The normalized values were then plotted in the XLFit 4 parameter curve fitting program to generate EC50 values.
Data set [9] deals with T3, CLK2(h) (Homo sapiens, UniProt P49760).
T3 construct: purchased Millipore KinaseProfiler
T3 sequence (P49760 whole entry): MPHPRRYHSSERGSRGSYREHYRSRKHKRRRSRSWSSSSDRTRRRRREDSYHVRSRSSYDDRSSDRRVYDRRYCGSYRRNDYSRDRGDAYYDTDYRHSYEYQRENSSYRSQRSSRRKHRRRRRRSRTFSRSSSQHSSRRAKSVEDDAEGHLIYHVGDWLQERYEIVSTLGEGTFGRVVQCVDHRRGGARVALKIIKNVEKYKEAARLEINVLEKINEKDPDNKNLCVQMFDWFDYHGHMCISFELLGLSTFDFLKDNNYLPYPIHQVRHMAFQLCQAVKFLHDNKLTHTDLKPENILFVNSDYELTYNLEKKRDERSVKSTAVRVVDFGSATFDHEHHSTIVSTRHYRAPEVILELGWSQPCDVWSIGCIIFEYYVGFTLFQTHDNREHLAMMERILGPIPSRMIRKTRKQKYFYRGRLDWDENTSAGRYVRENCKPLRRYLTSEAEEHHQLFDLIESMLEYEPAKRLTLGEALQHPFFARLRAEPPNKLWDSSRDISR
Put plainly: Kinase panel. It counts as biochemical.

For data set [10], the system named is cancer patients. The settings on record: unselected patient population; cited from earlier work.
The subject of data set [11] is LNCaP cells. The data set is described as follows: Cell cycle analysis. The following applies: various concentrations. It counts as cell-based, human. The protocol:
(§2) Cells were plated in 96 well plates at a density of 3000-5000 cells/well and allowed to adhere overnight. Cells were treated with DMSO or various concentrations of drug for 72 h, fixed and stained with propidium iodide to stain nuclei (Vindelov, 1982). Cells were analyzed in a flow cytometer (FACSCalibur; BD Biosciences, Franklin Lakes, NJ) and the fraction of cells in each phase of cell cycle was determined using the cell cycle analysis platform contained within the FlowJo software (Tree Star, Ashland, OR).

The subject of data set [12] is A3 cells. The data set is described as follows: Cell cycle analysis. It counts as cell-based, human. The settings on record: A3, 1 µM. As for the experimental part: as §2
The test system of data set [13] is I9.2 cells. Put plainly: Cell cycle analysis. It counts as cell-based, human. The following applies: I9.2, 1 µM. As for the experimental part:
as §2

Data set [14] has as its target T4, CLK3(h) (Homo sapiens, UniProt P49761).
T4 construct: purchased Millipore KinaseProfiler
The data set is described as follows: Kinase panel. It counts as biochemical.

The target in data set [15] is T5, PKBγ(h) (Homo sapiens, UniProt Q9Y243).
T5 construct: purchased Millipore KinaseProfiler
T5 sequence (Q9Y243 whole entry): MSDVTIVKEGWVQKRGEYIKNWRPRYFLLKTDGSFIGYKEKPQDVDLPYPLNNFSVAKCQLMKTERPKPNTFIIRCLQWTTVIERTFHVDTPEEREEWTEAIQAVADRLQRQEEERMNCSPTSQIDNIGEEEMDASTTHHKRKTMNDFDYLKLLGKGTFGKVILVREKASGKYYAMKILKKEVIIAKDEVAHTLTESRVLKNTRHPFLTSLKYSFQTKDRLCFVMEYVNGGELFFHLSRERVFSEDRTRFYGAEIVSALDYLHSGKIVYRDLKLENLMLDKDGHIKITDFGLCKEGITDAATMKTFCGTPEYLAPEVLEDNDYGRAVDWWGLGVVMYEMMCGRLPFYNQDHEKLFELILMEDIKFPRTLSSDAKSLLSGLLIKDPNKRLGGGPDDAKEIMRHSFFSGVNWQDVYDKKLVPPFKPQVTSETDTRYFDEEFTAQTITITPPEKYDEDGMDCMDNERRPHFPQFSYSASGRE
The data set is described as follows: Kinase panel. It counts as biochemical.

T1 sequence (P31749 whole entry): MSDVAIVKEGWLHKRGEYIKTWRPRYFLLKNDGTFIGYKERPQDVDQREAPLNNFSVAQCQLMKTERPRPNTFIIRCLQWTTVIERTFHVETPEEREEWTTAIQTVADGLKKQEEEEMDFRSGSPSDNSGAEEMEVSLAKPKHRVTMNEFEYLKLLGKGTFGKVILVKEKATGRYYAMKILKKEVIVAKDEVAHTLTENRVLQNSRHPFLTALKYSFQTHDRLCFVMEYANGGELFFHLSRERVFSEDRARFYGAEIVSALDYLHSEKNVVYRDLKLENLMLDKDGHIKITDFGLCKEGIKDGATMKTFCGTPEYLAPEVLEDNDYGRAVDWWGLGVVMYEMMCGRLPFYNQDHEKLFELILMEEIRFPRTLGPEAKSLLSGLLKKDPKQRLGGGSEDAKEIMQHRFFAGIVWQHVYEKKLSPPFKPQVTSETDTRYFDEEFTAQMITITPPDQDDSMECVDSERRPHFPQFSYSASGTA
T4 sequence (P49761 whole entry): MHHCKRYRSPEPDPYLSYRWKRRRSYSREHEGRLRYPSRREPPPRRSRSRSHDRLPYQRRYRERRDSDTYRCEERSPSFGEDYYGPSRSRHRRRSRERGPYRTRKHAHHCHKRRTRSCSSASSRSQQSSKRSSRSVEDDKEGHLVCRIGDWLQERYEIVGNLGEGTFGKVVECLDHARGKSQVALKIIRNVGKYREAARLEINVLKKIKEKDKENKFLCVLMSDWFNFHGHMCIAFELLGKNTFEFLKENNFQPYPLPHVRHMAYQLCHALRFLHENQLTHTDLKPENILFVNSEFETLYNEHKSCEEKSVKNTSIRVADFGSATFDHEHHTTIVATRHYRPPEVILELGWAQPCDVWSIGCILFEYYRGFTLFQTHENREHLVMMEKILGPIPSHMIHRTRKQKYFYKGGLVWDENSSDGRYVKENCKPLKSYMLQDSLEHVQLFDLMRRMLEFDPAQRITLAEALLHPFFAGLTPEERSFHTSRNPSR
PKCβ2, sequence (P05771 1-673 isoform P05771-2): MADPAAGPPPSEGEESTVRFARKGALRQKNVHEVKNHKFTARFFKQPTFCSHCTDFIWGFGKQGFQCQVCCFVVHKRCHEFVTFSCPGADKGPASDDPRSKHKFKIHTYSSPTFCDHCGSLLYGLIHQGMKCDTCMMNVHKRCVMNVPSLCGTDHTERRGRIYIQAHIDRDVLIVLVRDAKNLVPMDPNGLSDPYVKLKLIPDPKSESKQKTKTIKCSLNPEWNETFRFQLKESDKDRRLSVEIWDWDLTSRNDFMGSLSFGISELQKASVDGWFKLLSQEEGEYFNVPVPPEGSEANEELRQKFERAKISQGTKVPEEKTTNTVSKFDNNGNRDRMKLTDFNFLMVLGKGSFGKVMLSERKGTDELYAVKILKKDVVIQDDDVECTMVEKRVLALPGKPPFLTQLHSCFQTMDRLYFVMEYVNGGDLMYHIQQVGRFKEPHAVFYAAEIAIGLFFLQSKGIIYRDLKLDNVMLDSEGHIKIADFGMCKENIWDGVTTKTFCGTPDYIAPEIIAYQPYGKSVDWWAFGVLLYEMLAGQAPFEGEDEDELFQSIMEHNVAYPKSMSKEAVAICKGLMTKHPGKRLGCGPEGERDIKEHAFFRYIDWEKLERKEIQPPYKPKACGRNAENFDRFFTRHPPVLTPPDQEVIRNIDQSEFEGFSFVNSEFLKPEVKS

What is called IC50 is the concentration that gives 50% inhibition. As for `Cn1ncc(Cl)c1-c1cc(C(=O)N[C@H](CN)Cc2cccc(F)c2)sc1Cl` [GSK2110183], the IC50 was more than 1000 nM in data set [1] and 430 nM in data set [2].

Usually TGI stands for how far tumour growth fell short of that in controls. The inhibition is the change of the read-out against control, counted positive when it falls. In the case of `Cn1ncc(Cl)c1-c1cc(C(=O)N[C@H](CN)Cc2ccc(F)c(F)c2)oc1Cl` [GSK2141795], the TGI is recorded as 31% in data set [3] and 26% in [4]. The inhibition at 0.5 µM in data set [5] (0.5 µM) amounted to 99%; in [7] (0.5 µM) it was 95%; in data set [9] (0.5 µM), 58%; in data set [14] (0.5 µM) it was 2%; in data set [15] (0.5 µM), 98%. For the same compound, the inhibition at 10 µM in data set [5] (10 µM) is 99%; in [7] (10 µM), 99%; in [9] (10 µM), 94%; in data set [14] (10 µM), 59%; in data set [15] (10 µM), 98%. Further, the blood concentrations in data set [6] (30 mg/kg QDx7, time course, maintained for 8 h) is 2000 to 3000 nM. The compound further had a concentration at 2 h in data set [6] (SCID, mouse, whole blood, 30 mg/kg QDx7 oral, 2 h post last dose) of approximately 3000 nM. Besides, in data set [8], the “IC50 (nM) / EC50, FOXO_GFP translocation” value was 47 nM and 47 ± 37 nM. In data set [10], the “clinical activity, single agent” value is “partial response and stable disease”. Moreover, the “effect on cell cycle” value in data set [11] was “concentration-dependent increase in cells within the sub-G1 phase”; in data set [12], “dose dependant increase in G1 cellular arrest”; in [13], “dose dependant increase in G1 cellular arrest”.
